The text below walks through data of EP0962138B1, “Pesticidal method” (BASF Agro B.V., Arnhem (NL), Wädenswil-Branch, priority 1998, dated 1999).

One experiment has as its system Otiorynchus sulcatus. The experiment in a line: Compost incorporation test, protection of potted plants from weevil larvae (Example 1). The experiment is classed as in vivo. Conditions: Thuya plicata Atrovirens. As to the method: In a twenty-replicate test, Compound A was incorporated in compost by mixing a 2% w/w granule with the compost (Klasmann Substrat 2 (Peat based) ) using a small mechanical mixer. Plants of Thuya plicata Atrovirens were potted in the compost and allowed to grow for two months and then about 15 eggs of Otiorynchus sulcatus were added to the soil and covered with a small layer of compost. As a comparison, some compost was untreated and other compost was treated with the standard chlorpyrifos in the form of the commercial product suSCon Green®. After 27 days the soil was reinfested with 15 more eggs. The plant pots were enclosed such that the plants were exposed to light and the adult beetles which emerged could not escape.
Of the twenty replicates of each test, five were assessed after 6 months and fifteen were assessed after 18 months for numbers of larvae and adults. After 6 months the following results were observed: […]

The test system of another experiment is vine weevil. The experiment in a line: Curative drench treatment of infested potted plants (Example 2). Type of experiment: in vivo. Particulars: after 6 months, Fuchsia triphylla hybrid cv. Koralle. As to the method:
In 20-replicate tests, Fuchsia triphylla hybrid cv. Koralle was infested with 15 eggs per pot of vine weevil. Compound A in the form of an 80% water dispersible granule (Regent 800 WG) was suspended in water and added to each pot at the indicated rate per surface area of the pot at various dilutions. After 6 months, the trials were assessed. […] Drench Treatments

[1] abbreviates: Dose 75 g/m^3 in compost (suSCon Green), after 6 months, five replicates.
Setting [2] is: Dose 75 g/m^3 in compost (suSCon Green), after 18 months, fifteen replicates.
[3] abbreviates: Dose 2.5 g/m^3 in compost, after 6 months, five replicates.
Setting [4] is: Dose 2.5 g/m^3 in compost, after 18 months, fifteen replicates.
Setting [5] is: Dose 5 g/m^3 in compost, after 6 months, five replicates.
Where [6] appears, read: Dose 5 g/m^3 in compost, after 18 months, fifteen replicates.
Setting [7] is: Dose 7.5 g/m^3 in compost, after 6 months, five replicates.
Setting [8] is: Dose 7.5 g/m^3 in compost, after 18 months, fifteen replicates.
[9] abbreviates: Dose 15 g/m^3 in compost, after 6 months, five replicates.
Where [10] appears, read: Dose 15 g/m^3 in compost, after 18 months, fifteen replicates.

As for `CCOP(=S)(OCC)Oc1nc(Cl)c(Cl)cc1Cl` [Chlorpyrifos, chlorpyrifos, reference compound], in the experiment with Otiorynchus sulcatus (setting [1]), the “% Control” value was found to be 87%, the Number per pot is given as 0.8 and the “Total # larvae” value is given as 4. Also, in the experiment with Otiorynchus sulcatus (setting [2]), the “% Control” value came to 0%, the “% Survival of Plants” value is reported as 100%, the Number per pot was 3.1 and the “Total # larvae” value is reported as 47. For the same compound, in the experiment on Otiorynchus sulcatus (setting [2]), the “Total Dead Plants” value turned out to be 0.
As for `N#Cc1nn(-c2c(Cl)cc(C(F)(F)F)cc2Cl)c(N)c1[S+]([O-])C(F)(F)F` (centres unmarked) [Compound A, 5-amino-1-(2,6-dichloro 4-trifluoromethylphenyl) 4-trifluoromethylsulfinyl-3-cyanopyrazole], the “% Control” value with Otiorynchus sulcatus (setting [3]), in the experiment with Otiorynchus sulcatus (setting [4]), with Otiorynchus sulcatus (setting [5]), in the experiment on Otiorynchus sulcatus (setting [6]), in the experiment with Otiorynchus sulcatus (setting [7]) and in the experiment on Otiorynchus sulcatus (setting [8]) was 100% each time. The “% Control” value with Otiorynchus sulcatus (setting [9]) and in the experiment on Otiorynchus sulcatus (setting [10]) was 100% each time. Further, the Number per pot in the experiment on Otiorynchus sulcatus (setting [3]), in the experiment with Otiorynchus sulcatus (setting [4]), with Otiorynchus sulcatus (setting [5]), with Otiorynchus sulcatus (setting [6]), with Otiorynchus sulcatus (setting [7]) and in the experiment on Otiorynchus sulcatus (setting [8]) was 0 in each case. Further, the Number per pot in the experiment with Otiorynchus sulcatus (setting [9]) and in the experiment on Otiorynchus sulcatus (setting [10]) was 0 throughout. Besides, the “Total # larvae” value in the experiment with Otiorynchus sulcatus (setting [3]), in the experiment on Otiorynchus sulcatus (setting [4]), with Otiorynchus sulcatus (setting [5]), in the experiment with Otiorynchus sulcatus (setting [6]), in the experiment on Otiorynchus sulcatus (setting [7]) and in the experiment with Otiorynchus sulcatus (setting [8]) was 0 in each case. Besides, the “Total # larvae” value in the experiment on Otiorynchus sulcatus (setting [9]) and with Otiorynchus sulcatus (setting [10]) was 0 each time. The “% Survival of Plants” value in the experiment on Otiorynchus sulcatus (setting [4]), in the experiment with Otiorynchus sulcatus (setting [6]), in the experiment on Otiorynchus sulcatus (setting [8]) and in the experiment with Otiorynchus sulcatus (setting [10]) was 100% throughout. In addition, the “Total Dead Plants” value in the experiment with Otiorynchus sulcatus (setting [4]), with Otiorynchus sulcatus (setting [6]), with Otiorynchus sulcatus (setting [8]) and with Otiorynchus sulcatus (setting [10]) was 0 throughout. The “Protection of the plants compared with the commercial standard” value in the experiment on vine weevil was “protected the plants substantially better than the commercial standard fonofos”.
